# Test results reported in PMC9246256, “Structure-based optimization of type III indoleamine 2,3-dioxygenase 1 (IDO1) inhibitors” (Journal of Enzyme Inhibition and Medicinal Chemistry, 2022).
# Where “and” joins values, the source holds several entries; their conditions need not be identical. Equal entries are not always repeated. Where two headings read alike, the source gives them in different places.
# How the values were obtained:
# [1] = test system: HEK 293 T cells; details: previously determined, 200 µM, cited from earlier work
# [2] = target: T1, purified recombinant IDO1 (Homo sapiens, UniProt P14902); assay: Enzymatic IDO1 inhibition assay (ascorbate/methylene blue reduction system, HPLC detection of kynurenine); assay type: biochemical; details: for LE [kcal/mol/HA]: ligand efficiency, LE = -RT log(IC50)/number of heavy atoms, from enzymatic IC50; for IC50: enzymatic, L-Trp 100 µM, 0.01% Triton X-100, 5% DMSO, 20 min at room temperature, pH 6.5, duplicates, read-out: IC50 [ μ M] (SD)
# T1 construct: Full-length human IDO1 gene was cloned into the pET-28a vector; inferred from pET-28a vector and HisTrap purification; made in house; host or cells: E. coli Rosetta (DE3)
# Description: Enzymatic IC50 values were measured with the ascorbate/methylene blue reduction system[85] in presence of a non-ionic detergent to reduce compound aggregation as described before[28]. Kynurenine and L-Trp concentrations were determined by HPLC through UV detection.
# Full-length human IDO1 gene was cloned into the pET-28a vector and expressed in E. coli Rosetta (DE3) cells. […] The culture was harvested and frozen at −80 °C until further use. The frozen cells were lysed by sonication in 20 mM Tris pH 7, 400 mM NaCl, 1 mM MgCl2, 20 mM imidazole, 1 mM DTT, 0.5 mg/mL Lysozyme and Protease inhibitor. After centrifugation, the supernatant was loaded into a HisTrap HP column pre-equilibrated with buffer containing 20 mM Tris pH 7, 500 mM NaCl and 20 mM imidazole, and eluted with the same buffer containing 500 mM imidazole. Fractions containing IDO1 were pooled, concentrated, and injected on a size exclusion chromatography column (HiLoad Superdex S75 16/60) to increase purity. hIDO1 fractions were concentrated to 20 mg/mL in 20 mM Tris pH 7 and 150 mM NaCl.
# The enzymatic inhibition assays were performed as described by Takikawa et al.[130] with some modifications. Briefly, the reaction mixture (100 µL) contained potassium phosphate buffer (100 mM, pH 6.5) ascorbic acid (20 mM), catalase (400 units/mL), methylene blue (10 µM), purified recombinant IDO1 (2.5 ng/µL), L-Trp (100 µM), Triton X-100 (0.01%) and DMSO (5 µL). The inhibitors were serially diluted 3-fold for at least 8 different concentrations. After incubation at room temperature for 20 min, the reaction was stopped in its linear phase by addition of trichloroacetic acid solution (40 mL, 30% w/v), and the samples were incubated at 50 °C for 30 min. After centrifugation, 80 µl of supernatant from each well were used for HPLC analysis. The mobile phase for HPLC analysis was composed of 50% (v/v) of methanol and 50% of sodium citrate buffer (40 mM, pH 2.4) containing 400 µM sodium dodecyl sulphate. […] All assays were carried out in duplicates. The activity (Act) of each compound was calculated as Act = RT log(IC50) in analogy to the relation between the binding free energy and the Ki value. The ligand efficiency (LE) was calculated as LE = −Act/NHA, where NHA is the number of non-hydrogen atoms (heavy atoms) in the compound.
# [3] = target: T2, hIDO1 (Homo sapiens, UniProt P14902); details: previously determined, cited from earlier work; for Inh. [%]: 200 µM
# T2 construct: The full ORF of hIDO1 was cloned into the mammalian expression vector pcDNA6/myc-His; myc-His (vector-encoded); host or cells: HEK 293 T
# [4] = test system: HEK 293 T cells; assay: Cell viability / cellular toxicity (DAPI staining, cytometry); assay type: cell-based, human; details: compound 200 µM, 7 h
# Description: (§1) We tested the cellular hIDO1 inhibitory activity and toxicity of 30 active compounds at a single concentration (Figure 6 and Table 8). As some of the aniline derivatives reacted with Ehrlich’s reagent (p-dimethylaminobenzaldehyde, p-DMAB) used to quantify kynurenine, the kynurenine content of these samples was determined by HPLC. To be able to detect also weak inhibition, compounds were tested at the high concentration of 200 µM (Figure 6A and B, filled bars), except for less soluble compounds (52, 148, 149 and 153), which were tested at a concentration of 50 µM (Figure 6A and B, empty bars).
# Following DMSO (negative control) or inhibitor treatments, apoptotic cells were detected by 4′,6-diamidino-2-phenylindole (DAPI) staining. Briefly, after 7 h of incubation, cells were washed with PBS, resuspended in PBS with 1 µg/mL DAPI and immediately analysed using a BD LSR II cytometer. A 405 nm laser with 450/50 nm bandpass filter was used to collect data.
# [5] = target: T2, hIDO1; assay: Cellular hIDO1 inhibition (kynurenine production) in transiently transfected HEK 293 T cells; assay type: cell-based
# Description: as §1
# The cDNA encoding hIDO1 (NCBI, NM 0021464.3) was purchased from Origene as pCMV6-Entry vector (RC206592). The full ORF of hIDO1 was cloned into the mammalian expression vector pcDNA6/myc-His from Invitrogen. Human embryonic kidney 293 T (HEK 293 T) cells were transiently transfected with the plasmid construct encoding hIDO1. A 75 cm^2 flask containing HEK 293 T cells at a confluency of 70% was transfected with jetPEI DNA transfection reagent (Polyplus-transfection), according to manufacturer’s protocol. A total of 20 µg of pcDNA-IDO1 along with 5 µg of pcDNA-GFP plasmid were used for the transfection; GFP was used to evaluate transfection efficiency prior to the cellular assays. 16–18 h post-transfection the 293 T cells were detached with trypsin, centrifuged, and re-suspended in 25 mL of DMEM medium without phenol red, supplemented with penicillin and streptomycin, 10% foetal bovine serum and 1 mM pyruvate (Gibco). Subsequently, 100 µL of cells were distributed to each well of two 96-well round-bottom plates that had been pre-loaded with 100 µL DMEM and the small organic test molecule in DMSO (for a final DMSO concentration of 2%). DMEM medium contains 78 µM L-Trp and was supplemented with 500 µM of L-Trp. Cells transfected with hIDO1 were incubated for 7 h at 37 °C in a CO2 incubator. The reaction was stopped in its linear phase by adding trichloroacetic acid (TCA) to the medium at a final concentration of 4%. Plates were centrifuged for 15 min at 4,000 rpm. 100 µL of supernatant was added to 100 µL of 2% (w/v) DMAB in glacial acetic acid. After 10 min the absorbance was measured at a wavelength of 480 nm to detect kynurenine formation. Alternatively, kynurenine content was determined by HPLC as done for the enzymatic assay.
# [6] = ref 1 of Supporting Information (Röhrig et al. 2021)
# [7] = ref 3 of Supporting Information (= main text ref 62)
# [8] = ref 3 of Supporting Information (Röhrig et al. 2016)
# T1 sequence (P14902 whole entry): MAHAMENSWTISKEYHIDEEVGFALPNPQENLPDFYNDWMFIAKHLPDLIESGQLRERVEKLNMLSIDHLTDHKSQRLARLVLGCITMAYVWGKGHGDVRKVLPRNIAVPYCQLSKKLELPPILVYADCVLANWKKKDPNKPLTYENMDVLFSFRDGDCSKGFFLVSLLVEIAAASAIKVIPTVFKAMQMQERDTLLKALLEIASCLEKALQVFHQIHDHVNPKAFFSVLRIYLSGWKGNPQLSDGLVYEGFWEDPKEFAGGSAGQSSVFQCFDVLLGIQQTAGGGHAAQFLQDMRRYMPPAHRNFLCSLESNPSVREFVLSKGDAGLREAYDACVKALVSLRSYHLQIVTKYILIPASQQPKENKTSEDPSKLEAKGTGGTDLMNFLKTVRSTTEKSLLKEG
# T2 sequence (P14902 whole entry): as above
SMILES,LE [kcal/mol/HA] [2] [kcal/mol/HA],IC50 [2],melting point [°C],further results
Clc1cccc(-c2cnn[nH]2)c1 [Compound 30],0.73,,,"Tox. [%] [1, 6]: 0%; Inh. [%] [3, 6]: 95%"
"c1ccc(CCOc2ccccc2-c2c[nH]nn2)cc1 [Compound 26, 4–(2-Phenethoxyphenyl)-1,2,3-triazole]",,> 100 µM,91 to 93,
Clc1cccc(-c2cnn[nH]2)c1/C=C/c1ccccc1 [Compound 41],0.29,49 µM,,"Tox. [%] [1, 7]: 58%; Inh. [%] [3, 8]: 32%"
"O=C(c1cnn[nH]1)c1ccc(Br)cc1O [Compound 113, (4-Bromo-2-hydroxyphenyl)(1H-1,2,3-triazol-5-yl)methanone]",0.46,8.2 µM,192 to 194,Tox. [%] [4]: 0 (0) %; inhibition at 200 µM [5]: 36%
Clc1cccc(-c2cnn[nH]2)c1Cl [Compound 47],0.49,,,"IC50 ([3]; ref 4 of Supporting Information (Röhrig et al. 2012), read-out: IC50 [µM] (cellular)): > 100 µM"
c1ccc(-c2nnc[nH]2)cc1 [Compound 133],,,,"Tox. [%] [1, 6]: 0%; Inh. [%] [3, 6]: 0%"
Oc1ccccc1-c1nnc[nH]1 [Compound 138],0.51,,,"Tox. [%] [1, 6]: 6%; Inh. [%] [3, 6]: 52%"
"Clc1cccc(-c2c[nH]nn2)c1OCCc1ccccc1 [Compound 43, 4–(3-Chloro-2-phenethoxyphenyl)-1,2,3-triazole]",0.29,31 µM,96 to 99,
Oc1ccccc1-c1cnn[nH]1 [Compound 29],0.64,,,"Tox. [%] [1, 6]: 0%; Inh. [%] [3, 6]: 95%"
"Clc1cc(Cl)c(-c2c[nH]nn2)c(Cl)c1 [Compound 53, 4–(2,4,6-Trichlorophenyl)-1,2,3-triazole]",,> 500 µM,236 to 238,
Clc1cccc(-c2cnn[nH]2)c1CCC1CCCC1 [Compound 40],0.36,9.5 µM,,"Tox. [%] [1, 7]: 22%; Inh. [%] [3, 8]: 71%"
"CCC(=O)Nc1ccc(Cl)cc1-c1nc[nH]n1 [Compound 147, N-(4-Chloro-2-(1H-1,2,4-triazol-3-yl)phenyl)propionamide]",0.47,1.2 µM,168 to 171,Tox. [%] [4]: 16 (1) %; inhibition at 200 µM [5]: 100%
"O=C(c1ccccn1)c1cnn[nH]1 [Compound 120, Pyridin-2-yl(1H-1,2,3-triazol-5-yl)methanone]",,> 1000 µM,161 to 163,
c1ccc(-c2cnn[nH]2)cc1 [Compound 19],,,,"Tox. [%] [1, 6]: 3%; Inh. [%] [3, 6]: 93%"
"Cc1ccc(O)c(-c2cnn[nH]2)c1 [Compound 35, 4-Methyl-2-(1H-1,2,3-triazol-5-yl)phenol]",0.66,0.55 µM,160 to 162,
Clc1cccc(-c2nnc[nH]2)c1 [Compound 136],0.51,,,"Tox. [%] [1, 6]: 0%; Inh. [%] [3, 6]: 78%"
"OC(COc1ccccc1-c1cnn[nH]1)c1ccccc1 (stereo not drawn) [Compound 27, 2–(2-(1H-1,2,3-triazol-5-yl)phenoxy)-1-phenylethan-1-ol]",,> 500 µM,153 to 155,
"O=C(c1ccc(Br)cc1)c1cnn[nH]1 [Compound 109, (4-Bromophenyl)(1H-1,2,3-triazol-5-yl)methanone]",0.48,13 µM,,Tox. [%] [4]: 0 (0) %; inhibition at 200 µM [5]: 55%

# The next lines start with results.
LE [kcal/mol/HA] [2] [kcal/mol/HA],IC50 [2],melting point [°C],SMILES,further results
0.29,88 µM,148 to 151,"Oc1ccc(Cc2ccccc2)cc1-c1cnn[nH]1 [Compound 38, 4-Benzyl-2-(1H-1,2,3-triazol-5-yl)phenol]",
,> 250 µM,129 to 132,c1ccc(CCNc2ccccc2-c2cnn[nH]2)cc1 [Compound 28],
0.55,1 µM,212 to 214,"Nc1ccc(Cl)c(N)c1-c1nc[nH]n1 [Compound 157, 4-Chloro-2-(1H-1,2,4-triazol-3-yl)benzene-1,3-diamine]",
0.39,90 µM,208 to 210,"Cc1c(Cl)ccc(N)c1-c1nc[nH]n1 [Compound 156, 4-Chloro-3-methyl-2-(1H-1,2,4-triazol-3-yl)aniline]",
0.37,515 µM and 510 µM,170 to 172,"O=C(c1csnn1)c1cnn[nH]1 [Compound 119, (1,2,3-Thiadiazol-4-yl)(1H-1,2,3-triazol-5-yl)methanone]",Tox. [%] [4]: 0 (0) %; inhibition at 200 µM [5]: 4.8%
0.36,220 µM,149 to 151,"Cc1[nH]nnc1-c1cc(Cl)ccc1O [Compound 68, 4-Chloro-2–(5-methyl-1,2,3-triazol-4-yl)phenol]",
0.49,8.6 µM and 8.7 µM,207 to 209,"CNc1ccc(Cl)cc1-c1nc[nH]n1 [Compound 145, 4-Chloro-N-methyl-2-(1H-1,2,4-triazol-3-yl)aniline]",Tox. [%] [4]: 0 (0) %; inhibition at 200 µM [5]: 93%
,1200 µM,221 to 223,"O=C(c1ccncc1)c1cnn[nH]1 [Compound 122, Pyridin-4-yl(1H-1,2,3-triazol-5-yl)methanone]",
0.72,0.14 µM,186 to 188,"Oc1ccc(F)cc1-c1cnn[nH]1 [Compound 34, 4-Fluoro-2-(1H-1,2,3-triazol-5-yl)phenol]",
0.56,0.75 µM,138 to 140,"CCCc1ccc(O)c(-c2cnn[nH]2)c1 [Compound 37, 4-Propyl-2-(1H-1,2,3-triazol-5-yl)phenol]",
0.64,0.25 µM,71 to 73,"CCc1ccc(O)c(-c2cnn[nH]2)c1 [Compound 36, 4-Ethyl-2-(1H-1,2,3-triazol-5-yl)phenol]",
0.51,13 µM,257 to 259,"Oc1cccc(O)c1-c1cnn[nH]1 [Compound 44, 2-(1H-1,2,3-triazol-5-yl)benzene-1,3-diol]",
0.45,52 µM,,"Brc1ccc(Nc2c[nH]nn2)cc1 [Compound 78, N-(4-Bromophenyl)-1,2,3-triazol-4-amine, reference compound]",Tox. [%] [4]: 0 (0) %; inhibition at 200 µM [5]: 97%
0.47,31 µM,,"Nc1cccc(N)c1-c1nc[nH]n1 [Compound 142, 2-(1H-1,2,4-triazol-3-yl)benzene-1,3-diamine]",Tox. [%] [4]: 11 (0.4) %; inhibition at 200 µM [5]: 56%
0.31,365 µM and 370 µM,186 to 188,"O=C(c1cnn[nH]1)c1cc(Cl)ccc1O [Compound 111, (5-Chloro-2-hydroxyphenyl)(1H-1,2,3-triazol-5-yl)methanone]",Tox. [%] [4]: 0 (0) %; inhibition at 200 µM [5]: 20%
